Reference: patent EP4603105A1, “PHARMACEUTICAL COMPOSITION CONTAINING CYCLIC COMPOUND HAVING SELECTIVE KRAS INHIBITORY EFFECT AGAINST HRAS AND NRAS” (CHUGAI SEIYAKU KABUSHIKI KAISHA, priority 2022, dated 2024)
*1 amine or outer side, *2 acyl side, *3 side chain or, on linkers, in order; H or OH if unused. Where a SMILES comes first, the peptide text is derived from it. Bridges are numbered along the chain shown (N, C = ends). [ ]: non-standard residue; d: D form. The star is where a group is joined. hPhe(3,5-F2-4-CF3) = N[C@@H](CCc1cc(F)c(C(F)(F)F)c(F)c1)C(=O)O; hPhe(3-Cl-4-CF3) = N[C@@H](CCc1ccc(C(F)(F)F)c(Cl)c1)C(=O)O; NPrPhe(4-CF3) = CCCN[C@@H](Cc1ccc(C(F)(F)F)cc1)C(=O)O; NMeGly(cPent) = CN[C@H](C(=O)O)C1CCCC1; NMeNva(3-Et) = CCC(CC)[C@H](NC)C(=O)O; X3 = CCC[C@](C)(N[*:1])C(=O)[*:2]; NMeD = CN[C@@H](CC(=O)O)C(=O)O; NMeL = CN[C@@H](CC(C)C)C(=O)O; NMeNva = CCC[C@H](NC)C(=O)O; Morpholide = C1CN(*)CCO1; NMeA = CN[C@@H](C)C(=O)O; Aze = O=C(O)[C@@H]1CCN1; Ac4c = NC1(C(=O)O)CCC1; Sar = CNCC(=O)O

Columns and labels:
[1] = system: human lung cancer strain NCI-H441; format: cell-based
Method in brief: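 Readout: […] after the ATP-based reagent. Compound: serial dilutions in dimethyl sulfoxide.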

[2] = target: HRAS wild-type protein (Homo sapiens, UniProt P01112); experiment: Binding to HRAS by surface plasmon resonance (SPR), KD and KD ratio to KRAS
Chain of HRAS wild-type protein (P01112 whole entry): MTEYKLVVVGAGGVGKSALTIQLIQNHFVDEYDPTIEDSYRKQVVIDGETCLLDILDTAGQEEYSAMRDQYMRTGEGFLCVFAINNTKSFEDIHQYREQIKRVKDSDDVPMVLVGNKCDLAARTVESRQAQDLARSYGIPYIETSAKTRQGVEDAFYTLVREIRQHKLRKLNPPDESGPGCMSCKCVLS
Method in brief: (§1)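 GDP-loaded biotinylated Avi-tag RAS proteins (E. coli-expressed) captured on a Biotin CAPture chip at ~100–300 RU; single-cycle kinetics at 30°C, 100 µL/min, 75 s injections of rising compound concentrations. HBS pH 7.4 running buffer with 1 mM DTT, 10 mM MgCl2, 10 µM GDP, 4% DMSO. KD from 1:1 binding fit.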

[3] = target: GDP-bound NRAS wild-type protein (Homo sapiens, UniProt P01111); experiment: Binding to NRAS by surface plasmon resonance (SPR), KD and KD ratio to KRAS
Chain of GDP-bound NRAS wild-type protein (P01111 whole entry): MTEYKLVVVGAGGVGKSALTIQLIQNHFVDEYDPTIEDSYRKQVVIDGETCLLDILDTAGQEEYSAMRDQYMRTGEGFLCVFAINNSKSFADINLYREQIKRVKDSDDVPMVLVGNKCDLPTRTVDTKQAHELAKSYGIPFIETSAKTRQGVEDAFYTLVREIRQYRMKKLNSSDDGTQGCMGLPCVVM
Method in brief: as §1

[4] = ratio of KD value for HRAS wild-type protein to KD value for KRAS (SPR)
[5] = ratio of KD value for GDP-bound NRAS wild-type protein to KD value for KRAS (SPR)
[6] = ratio of the KD value with respect to HRAS wild-type protein to the KD value with respect to KRAS
[7] = ratio of the KD value with respect to GDP-bound NRAS wild-type protein to the KD value with respect to KRAS
[8] = ratio of KD for HRAS wild-type protein to KD for KRAS
[9] = ratio of KD for GDP-bound NRAS wild-type protein to KD for KRAS

SMILES	IC50 [1] [nM]	HRAS /KRAS [2, 4]	NRAS /KRAS [3, 5]	HRAS /KRAS [2, 6]	NRAS /KRAS [3, 7]	HRAS /KRAS [2, 8]	NRAS /KRAS [3, 9]
CC[C@H](C)[C@@H]1NC(=O)[C@H](COC)N(C)C(=O)C[C@@H](C(=O)N(C)C)N(C)C(=O)[C@H](C2CCCC2)N(C)C(=O)C2(CC(C)(C)C2)NC(=O)[C@@H]2CC(F)(F)CN2C(=O)[C@H](CCc2cc(F)c(C(F)(F)F)c(F)c2)NC(=O)CN(C)C(=O)[C@H](Cc2ccc(C(F)(F)F)cc2)N2CC/C=C\C[C@@H](C2=O)N(C)C(=O)CN(C)C1=O [PP1717]	2.4	A (a compound having 10 or more and less than 20 is denoted as A)	A (a compound having 10 or more and less than 20 is denoted as A)				
CCC[C@H]1C(=O)N[C@@H]([C@@H](C)CC)C(=O)N(C)[C@@H](C)C(=O)N2CC[C@H]2C(=O)N(CCC)[C@@H](Cc2ccc(C(F)(F)F)cc2)C(=O)N(C)CC(=O)N[C@@H](CCc2ccc(C(F)(F)F)c(Cl)c2)C(=O)N2CCC[C@H]2C(=O)NC2(CCC2)C(=O)N(C)[C@@H](C(CC)CC)C(=O)N(C)[C@H](C(=O)N2CCOCC2)CC(=O)N1C [PP1959] ([NMeNva]I[NMeA][Aze][NPrPhe(4-CF3)][Sar][hPhe(3-Cl-4-CF3)]P[Ac4c][NMeNva(3-Et)][NMeD]-Morpholide; lactam N-11)	14.7			B (a compound having 3 or more and less than 10 is denoted as B)	C (A compound having a KD ratio of 0.1 or more and less than 3 is denoted as C)		
CCO[C@@H]1C[C@H]2C(=O)NC3(CCC3)C(=O)N(C)[C@@H](C3CCCC3)C(=O)N(C)[C@H](C(=O)N(C)C)CC(=O)N(C)[C@@H](CCOC)C(=O)N[C@@H]([C@@H](C)CC)C(=O)N(C)CC(=O)N(C)[C@H]3CCCCN(C3=O)[C@@H](Cc3ccc(C(F)(F)F)cc3)C(=O)N(C)CC(=O)N[C@@H](CCc3cc(F)c(C(F)(F)F)c(F)c3)C(=O)N2C1 [PP0705]	17.5			C (A compound having a KD ratio of 0.1 or more and less than 3 is denoted as C)	C (A compound having a KD ratio of 0.1 or more and less than 3 is denoted as C)		
CCCN1C(=O)CN(C)C(=O)CN(C)C(=O)[C@H]([C@@H](C)CC)NC(=O)[C@H](CC(C)C)N(C)C(=O)C[C@@H](C(=O)N2CCOCC2)N(C)C(=O)[C@H](C2CCCC2)N(C)C(=O)[C@](C)(CCC)NC(=O)[C@@H]2CCCN2C(=O)[C@H](CCc2cc(F)c(C(F)(F)F)c(F)c2)NC(=O)CN(C)C(=O)[C@@H]1Cc1ccc(C(F)(F)F)cc1 [PP0758] ([NMeL]I[Sar][Sar][NPrPhe(4-CF3)][Sar][hPhe(3,5-F2-4-CF3)]P[X3][NMeGly(cPent)][NMeD]-Morpholide; lactam N-11)	153			C (A compound having a KD ratio of 0.1 or more and less than 3 is denoted as C)	B (a compound having 3 or more and less than 10 is denoted as B)		

Further compounds by falling IC50 [1], results first:

IC50 [1] [nM]	SMILES	HRAS /KRAS [2, 4]	NRAS /KRAS [3, 5]	HRAS /KRAS [2, 6]	NRAS /KRAS [3, 7]	HRAS /KRAS [2, 8]	NRAS /KRAS [3, 9]
188	CCO[C@@H]1C[C@H]2C(=O)NC3(CCCC3)C(=O)N(C)[C@@H](C3CCCC3)C(=O)N(C)[C@H](C(=O)N3CCOCC3)CC(=O)N(C)[C@@H](CC(C)C)C(=O)N[C@@H]([C@@H](C)CC)C(=O)N(C)CC(=O)N(C)[C@H]3CC(C)=CCN(C3=O)[C@@H](Cc3ccc(C(F)(F)F)cc3)C(=O)N(C)CC(=O)N[C@@H](CCc3cc(F)c(C(F)(F)F)c(F)c3)C(=O)N2C1 [PP1038]					C (A compound having a KD ratio of 0.1 or more and less than 3 is denoted as C)	C (A compound having a KD ratio of 0.1 or more and less than 3 is denoted as C)
91	CCCN1C(=O)CN(C)C(=O)CN(C)C(=O)[C@H]([C@@H](C)CC)NC(=O)[C@@H]2CCCCCCC[C@@H](NC(=O)[C@@H]3C[C@@H](OCC)CN3C(=O)[C@H](CCc3cc(F)c(C(F)(F)F)c(F)c3)NC(=O)CN(C)C(=O)[C@@H]1Cc1ccc(C(F)(F)F)cc1)C(=O)N(C)[C@@H](C1CCCC1)C(=O)N(C)[C@H](C(=O)N(C)C)CC(=O)N2C [PP0925]					B (a compound having 3 or more and less than 10 is denoted as B)	A (a compound having 10 or more and less than 20 is denoted as A)
2.6	CC[C@H](C)[C@@H]1NC(=O)[C@H](CC(F)(F)F)N(C)C(=O)C[C@@H](C(=O)N(C)C)N(C)C(=O)[C@H](C2CCCC2)N(C)C(=O)C2(CC(C)(C)C2)NC(=O)[C@@H]2C[C@H](C)CN2C(=O)[C@H](CCc2cc(F)c(C(F)(F)F)c(F)c2)NC(=O)CN(C)C(=O)[C@H](Cc2ccc(C(F)(F)F)cc2)N2CC/C=C\C[C@@H](C2=O)N(C)C(=O)CN(C)C1=O [PP1682]	A (a compound having 10 or more and less than 20 is denoted as A)	AA (a compound having 20 or more is denoted as AA)				
